Bridge positions count the residues as written; N and C are the ends. Square brackets hold non-standard residues; d marks the D form. Peptide text beside a SMILES is read from it. * marks the point of attachment. Ala(morpholin-4-yl) = N[C@@H](CN1CCOCC1)C(=O)O; Phe(4-COOH) = N[C@@H](Cc1ccc(C(=O)O)cc1)C(=O)O; Bip = N[C@@H](Cc1ccc(-c2ccccc2)cc1)C(=O)O; Phe(4-CN) = N#Cc1ccc(C[C@H](N)C(=O)O)cc1; Phe(3-Me) = Cc1cccc(C[C@H](N)C(=O)O)c1; Abu(3S-NH2) = C[C@H](N)[C@H](N)C(=O)O; Val(3-OH) = CC(C)(O)[C@H](N)C(=O)O; Cha = N[C@@H](CC1CCCCC1)C(=O)O; dDab = NCC[C@@H](N)C(=O)O; Carboxymethyl = O=C(O)C*; Orn = NCCC[C@H](N)C(=O)O; Aun = NCCCCCCCCCCC(=O)O; Dab = NCC[C@H](N)C(=O)O; Nva = CCC[C@H](N)C(=O)O; AEEA = NCCOCCOCC(=O)O
Molecular target: T1, PD-1/PD-L1 interaction (PE-labeled human PD-L1-Ig binding to Jurkat cell line over-expressing human PD-1) (Homo sapiens, UniProt Q15116)
T1 construct: expressed in transfected cells; host or cells: Jurkat
T1 sequence (Q15116 25-288): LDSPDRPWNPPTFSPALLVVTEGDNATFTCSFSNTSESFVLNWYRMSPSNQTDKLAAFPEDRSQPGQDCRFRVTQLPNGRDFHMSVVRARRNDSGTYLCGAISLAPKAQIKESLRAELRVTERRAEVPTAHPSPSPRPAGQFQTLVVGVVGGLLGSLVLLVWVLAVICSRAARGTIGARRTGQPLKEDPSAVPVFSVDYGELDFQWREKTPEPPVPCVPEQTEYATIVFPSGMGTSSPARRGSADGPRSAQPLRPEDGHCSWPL
Assay: Jurkat-PD-1 Cell Binding High-Content Screening Assay (CBA)
Type: cell-based
Details: Jurkat cell line over-expressing human PD-1; PE-labeled PD-L1-Ig 20 nM final; read-out: Jurkat hPD1-PDL1 IC50
Method in brief: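 Human PD-L1-Ig carrying a covalent PE label on its Ig tag serves as the probe, applied at 20 nM final to compound-treated (2 h, 37° C) Jurkat-hPD-1 cells in medium with 10% fetal calf serum. After one hour, fixation and nuclear staining precede high-content image analysis.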

SMILES	IC50
Cc1cccc(C[C@@H]2NC(=O)[C@H](CC(=O)O)NC(=O)[C@H](Cc3ccc(OCC(=O)O)cc3)NC(=O)[C@H](CN3CCOCC3)NC(=O)CSC[C@@H](C(=O)N[C@@H](CCN)C(=O)NCCCCCCCCCCC(=O)O)NC(=O)[C@H](CO)NC(=O)[C@H](C(C)(C)O)NC(=O)[C@H](CC3CCCCC3)NC(=O)[C@H](CCN)NC(=O)[C@@H](CC(C)C)NC(=O)[C@H](CCCN)NC(=O)[C@H](Cc3ccc(OCC(=O)O)cc3)NC(=O)[C@H](Cc3ccc(-c4ccccc4)cc3)NC(=O)[C@H](Cc3ccc(OCC(=O)O)cc3)NC2=O)c1 [Compound 2235] ({CH2CO}-[Ala(morpholin-4-yl)]Y(Carboxymethyl)D[Phe(3-Me)]Y(Carboxymethyl)[Bip]Y(Carboxymethyl)[Orn][dL][Dab][Cha][Val(3-OH)]SC[Dab][Aun]-OH; thioether N-14)	0.9 nM
Cc1cccc(C[C@@H]2NC(=O)[C@H](CC(=O)O)NC(=O)[C@H](Cc3ccc(OCC(=O)O)cc3)NC(=O)[C@@H](CCN)NC(=O)CSC[C@@H](C(=O)N[C@@H](CCN)C(=O)NCCCCCCCCCCC(=O)O)NC(=O)[C@H](CO)NC(=O)[C@H](C(C)(C)O)NC(=O)[C@H](CC3CCCCC3)NC(=O)[C@H](CCN)NC(=O)[C@@H](CC(C)C)NC(=O)[C@H](CCCN)NC(=O)[C@H](Cc3ccc(OCC(=O)O)cc3)NC(=O)[C@H](Cc3ccc(-c4ccccc4)cc3)NC(=O)[C@H](Cc3ccc(OCC(=O)O)cc3)NC2=O)c1 [Compound 2236] ({CH2CO}-[dDab]Y(Carboxymethyl)D[Phe(3-Me)]Y(Carboxymethyl)[Bip]Y(Carboxymethyl)[Orn][dL][Dab][Cha][Val(3-OH)]SC[Dab][Aun]-OH; thioether N-14)	185 nM
Cc1cccc(C[C@@H]2NC(=O)[C@H](CC(=O)O)NC(=O)[C@H](Cc3ccc(OCC(=O)O)cc3)NC(=O)[C@H]([C@H](C)N)NC(=O)CSC[C@@H](C(=O)N[C@@H](CCN)C(=O)NCCCCCCCCCCC(=O)O)NC(=O)[C@H](CO)NC(=O)[C@H](C(C)(C)O)NC(=O)[C@H](CC3CCCCC3)NC(=O)[C@H](CCN)NC(=O)[C@@H](CC(C)C)NC(=O)[C@H](CCCN)NC(=O)[C@H](Cc3ccc(OCC(=O)O)cc3)NC(=O)[C@H](Cc3ccc(-c4ccccc4)cc3)NC(=O)[C@H](Cc3ccc(OCC(=O)O)cc3)NC2=O)c1 [Compound 2237] ({CH2CO}-[Abu(3S-NH2)]Y(Carboxymethyl)D[Phe(3-Me)]Y(Carboxymethyl)[Bip]Y(Carboxymethyl)[Orn][dL][Dab][Cha][Val(3-OH)]SC[Dab][Aun]-OH; thioether N-14)	2.6 nM
Cc1cccc(C[C@@H]2NC(=O)[C@H](CC(=O)O)NC(=O)[C@H](Cc3ccc(OCC(=O)O)cc3)NC(=O)[C@H](CCCCN)NC(=O)CSC[C@@H](C(=O)N[C@@H](CCN)C(=O)NCCCCCCCCCCC(=O)O)NC(=O)[C@H](CO)NC(=O)[C@H](C(C)(C)O)NC(=O)[C@H](CC3CCCCC3)NC(=O)[C@H](CCN)NC(=O)[C@@H](CC(C)C)NC(=O)[C@H](CCCN)NC(=O)[C@H](Cc3ccc(OCC(=O)O)cc3)NC(=O)[C@H](Cc3ccc(-c4ccccc4)cc3)NC(=O)[C@H](Cc3ccc(OCC(=O)O)cc3)NC2=O)c1 [Compound 2238] ({CH2CO}-KY(Carboxymethyl)D[Phe(3-Me)]Y(Carboxymethyl)[Bip]Y(Carboxymethyl)[Orn][dL][Dab][Cha][Val(3-OH)]SC[Dab][Aun]-OH; thioether N-14)	11.2 nM
COC[C@@H]1NC(=O)CSC[C@@H](C(=O)N[C@@H](CCN)C(=O)NCCOCCOCC(=O)NCCCCCCCCCCC(=O)O)NC(=O)[C@H](CO)NC(=O)[C@H](C(C)(C)O)NC(=O)[C@H](CC2CCCCC2)NC(=O)[C@H](CCN)NC(=O)[C@@H](CC(C)C)NC(=O)[C@H](CCCN)NC(=O)[C@H](Cc2ccc(OCC(=O)O)cc2)NC(=O)[C@H](Cc2ccc(-c3ccccc3)cc2)NC(=O)[C@H](Cc2ccc(OCC(=O)O)cc2)NC(=O)[C@H](Cc2cccc(C)c2)NC(=O)[C@H](CC(=O)O)NC(=O)[C@H](Cc2ccc(OCC(=O)O)cc2)NC1=O [Compound 2239] ({CH2CO}-S(Me)Y(Carboxymethyl)D[Phe(3-Me)]Y(Carboxymethyl)[Bip]Y(Carboxymethyl)[Orn][dL][Dab][Cha][Val(3-OH)]SC[Dab][AEEA][Aun]-OH; thioether N-14)	1.6 nM
Cc1cccc(C[C@@H]2NC(=O)[C@H](CC(=O)O)NC(=O)[C@H](Cc3ccc(OCC(=O)O)cc3)NC(=O)[C@H](Cc3ccc(C#N)cc3)NC(=O)CSC[C@@H](C(=O)N[C@@H](CCN)C(=O)NCCOCCOCC(=O)NCCCCCCCCCCC(=O)O)NC(=O)[C@H](CO)NC(=O)[C@H](C(C)(C)O)NC(=O)[C@H](CC3CCCCC3)NC(=O)[C@H](CCN)NC(=O)[C@@H](CC(C)C)NC(=O)[C@H](CCCN)NC(=O)[C@H](Cc3ccc(OCC(=O)O)cc3)NC(=O)[C@H](Cc3ccc(-c4ccccc4)cc3)NC(=O)[C@H](Cc3ccc(OCC(=O)O)cc3)NC2=O)c1 [Compound 2240] ({CH2CO}-[Phe(4-CN)]Y(Carboxymethyl)D[Phe(3-Me)]Y(Carboxymethyl)[Bip]Y(Carboxymethyl)[Orn][dL][Dab][Cha][Val(3-OH)]SC[Dab][AEEA][Aun]-OH; thioether N-14)	7.3 nM
COC[C@@H]1NC(=O)CSC[C@@H](C(=O)N[C@@H](CCN)C(=O)NCCOCCOCC(=O)NCCCCCCCCCCC(=O)O)NC(=O)[C@H](CO)NC(=O)[C@H](C(C)(C)O)NC(=O)[C@H](CC2CCCCC2)NC(=O)[C@H](CCN)NC(=O)[C@@H](CC(C)C)NC(=O)[C@H](CCCN)NC(=O)[C@H](Cc2ccc(OCC(=O)O)cc2)NC(=O)[C@H](Cc2ccc(-c3ccccc3)cc2)NC(=O)[C@H](Cc2ccc(OCC(=O)O)cc2)NC(=O)[C@H](Cc2cccc(C)c2)NC(=O)[C@H](CC(=O)O)NC(=O)[C@H](Cc2ccc(C(=O)O)cc2)NC1=O [Compound 2241] ({CH2CO}-S(Me)[Phe(4-COOH)]D[Phe(3-Me)]Y(Carboxymethyl)[Bip]Y(Carboxymethyl)[Orn][dL][Dab][Cha][Val(3-OH)]SC[Dab][AEEA][Aun]-OH; thioether N-14)	3.7 nM
Cc1cccc(C[C@@H]2NC(=O)[C@H](CC(=O)O)NC(=O)[C@H](Cc3ccc(C(=O)O)cc3)NC(=O)[C@H](Cc3ccc(C#N)cc3)NC(=O)CSC[C@@H](C(=O)N[C@@H](CCN)C(=O)NCCOCCOCC(=O)NCCCCCCCCCCC(=O)O)NC(=O)[C@H](CO)NC(=O)[C@H](C(C)(C)O)NC(=O)[C@H](CC3CCCCC3)NC(=O)[C@H](CCN)NC(=O)[C@@H](CC(C)C)NC(=O)[C@H](CCCN)NC(=O)[C@H](Cc3ccc(OCC(=O)O)cc3)NC(=O)[C@H](Cc3ccc(-c4ccccc4)cc3)NC(=O)[C@H](Cc3ccc(OCC(=O)O)cc3)NC2=O)c1 [Compound 2242] ({CH2CO}-[Phe(4-CN)][Phe(4-COOH)]D[Phe(3-Me)]Y(Carboxymethyl)[Bip]Y(Carboxymethyl)[Orn][dL][Dab][Cha][Val(3-OH)]SC[Dab][AEEA][Aun]-OH; thioether N-14)	4 nM
Cc1cccc(C[C@@H]2NC(=O)[C@H](CC(=O)O)NC(=O)[C@H](Cc3ccc(OCC(=O)O)cc3)NC(=O)[C@H]([C@@H](C)O)NC(=O)CSC[C@@H](C(=O)N[C@@H](CCN)C(=O)NCCOCCOCC(=O)NCCCCCCCCCCC(=O)O)NC(=O)[C@H](CO)NC(=O)[C@H](C(C)(C)O)NC(=O)[C@H](CC3CCCCC3)NC(=O)[C@H](CCN)NC(=O)[C@@H](CC(C)C)NC(=O)[C@H](CCCN)NC(=O)[C@H](Cc3ccc(OCC(=O)O)cc3)NC(=O)[C@H](Cc3ccc(-c4ccccc4)cc3)NC(=O)[C@H](Cc3ccc(OCC(=O)O)cc3)NC2=O)c1 [Compound 2243] ({CH2CO}-TY(Carboxymethyl)D[Phe(3-Me)]Y(Carboxymethyl)[Bip]Y(Carboxymethyl)[Orn][dL][Dab][Cha][Val(3-OH)]SC[Dab][AEEA][Aun]-OH; thioether N-14)	1.7 nM
Cc1cccc(C[C@@H]2NC(=O)[C@H](CC(=O)O)NC(=O)[C@H](Cc3ccc(OCC(=O)O)cc3)NC(=O)[C@H](CCCNC(=N)N)NC(=O)CSC[C@@H](C(=O)N[C@@H](CCN)C(=O)NCCOCCOCC(=O)NCCCCCCCCCCC(=O)O)NC(=O)[C@H](CO)NC(=O)[C@H](C(C)(C)O)NC(=O)[C@H](CC3CCCCC3)NC(=O)[C@H](CCN)NC(=O)[C@@H](CC(C)C)NC(=O)[C@H](CCCN)NC(=O)[C@H](Cc3ccc(OCC(=O)O)cc3)NC(=O)[C@H](Cc3ccc(-c4ccccc4)cc3)NC(=O)[C@H](Cc3ccc(OCC(=O)O)cc3)NC2=O)c1 [Compound 2244] ({CH2CO}-RY(Carboxymethyl)D[Phe(3-Me)]Y(Carboxymethyl)[Bip]Y(Carboxymethyl)[Orn][dL][Dab][Cha][Val(3-OH)]SC[Dab][AEEA][Aun]-OH; thioether N-14)	0.6 nM
Cc1cccc(C[C@@H]2NC(=O)[C@H](CC(=O)O)NC(=O)[C@H](Cc3ccc(O)cc3)NC(=O)[C@H]([C@@H](C)O)NC(=O)CSC[C@@H](C(=O)N[C@@H](CCN)C(=O)NCCOCCOCC(=O)NCCCCCCCCCCC(=O)O)NC(=O)[C@H](CO)NC(=O)[C@H](C(C)(C)O)NC(=O)[C@H](CC3CCCCC3)NC(=O)[C@H](CCN)NC(=O)[C@@H](CC(C)C)NC(=O)[C@H](CCCN)NC(=O)[C@H](Cc3ccc(OCC(=O)O)cc3)NC(=O)[C@H](Cc3ccc(-c4ccccc4)cc3)NC(=O)[C@H](Cc3ccc(OCC(=O)O)cc3)NC2=O)c1 [Compound 2245] ({CH2CO}-TYD[Phe(3-Me)]Y(Carboxymethyl)[Bip]Y(Carboxymethyl)[Orn][dL][Dab][Cha][Val(3-OH)]SC[Dab][AEEA][Aun]-OH; thioether N-14)	1.2 nM
CCC[C@@H]1NC(=O)CSC[C@@H](C(=O)N[C@@H](CCN)C(=O)NCCOCCOCC(=O)NCCCCCCCCCCC(=O)O)NC(=O)[C@H](CO)NC(=O)[C@H](C(C)(C)O)NC(=O)[C@H](CC2CCCCC2)NC(=O)[C@H](CCN)NC(=O)[C@@H](CC(C)C)NC(=O)[C@H](CCCN)NC(=O)[C@H](Cc2ccc(OCC(=O)O)cc2)NC(=O)[C@H](Cc2ccc(-c3ccccc3)cc2)NC(=O)[C@H](Cc2ccc(OCC(=O)O)cc2)NC(=O)[C@H](Cc2cccc(C)c2)NC(=O)[C@H](CC(=O)O)NC(=O)[C@H](Cc2ccc(OCC(=O)O)cc2)NC1=O [Compound 2246] ({CH2CO}-[Nva]Y(Carboxymethyl)D[Phe(3-Me)]Y(Carboxymethyl)[Bip]Y(Carboxymethyl)[Orn][dL][Dab][Cha][Val(3-OH)]SC[Dab][AEEA][Aun]-OH; thioether N-14)	0.6 nM
